Read-outs that look alike come from different tables or passages of the source.
System: 8XTBD luciferase reporter (YAP reporter) in HEK293T cells
Test: YAP Reporter Assay
Type: cell-based
Details: Homo sapiens, HEK-293T
In short: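 HEK293T cells stably carrying 8XTBD firefly luciferase and TK-renilla (3×10^3 cells/well) dosed 3-4 h after plating with compounds from 3 μM final, 1:3 dilution, 10 points, quadruplicates. After 24 h at 37° C, Dual-Glo readings gave IC50 and maximum inhibition reported separately for firefly and renilla.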

[1] = HEK293T cells stably transfected with 8XTBD luciferase reporter and pRLTK, 24-hr incubation, top concentration 3 μM, read-out: Firefly Luciferase IC50

COC[C@H](C)NC(=O)c1cnc2c(-c3ccc(C(F)(F)F)cc3)cccc2c1 [Compound 102, (S)—N-(1-methoxypropan-2-yl)-8-(4-(trifluoromethyl)phenyl)quinoline-3-carboxamide]
IC50 [1]: < 0.1 µM

C[C@H](NC(=O)c1cnc2c(-c3ccc(C(F)(F)F)cc3)cccc2c1)c1ccccn1 [Compound 103, (S)—N-(1-(pyridin-2-yl)ethyl)-8-(4-(trifluoromethyl)phenyl)quinoline-3-carboxamide]
IC50 [1]: < 0.1 µM

CC(C)NC(=O)c1cnc2c(-c3ccc(C(F)(F)F)cc3)cc(OC(F)(F)F)cc2c1 [Compound 104, N-isopropyl-6-(trifluoromethoxy)-8-[4-(trifluoromethyl)phenyl]quinoline-3-carboxamide]
IC50 [1]: < 0.1 µM

COc1cc(-c2ccc(C(F)(F)F)cc2)c2ncc(C(=O)NC(CO)c3ccccn3)cc2c1 (stereo not shown) [Compound 105, N-[2-hydroxy-1-(2-pyridyl)ethyl]-6-methoxy-8-[4-(trifluoromethyl)phenyl]quinoline-3-carboxamide]
IC50 [1]: < 0.1 µM

COc1cc(-c2ccc(C(F)(F)F)cc2)c2ncc(C(=O)N[C@H](C)c3ccccn3)cc2c1 [Compound 106, 6-methoxy-N-[(1R)-1-(2-pyridyl)ethyl]-8-[4-(trifluoromethyl)phenyl]quinoline-3-carboxamide]
IC50 [1]: 0.1 to 1 µM

COC[C@@H](C)NC(=O)c1cnc2c(-c3ccc(C(F)(F)F)cc3)cc(OC)cc2c1 [Compound 107, 6-methoxy-N-[(1R)-2-methoxy-1-methyl-ethyl]-8-[4-(trifluoromethyl)phenyl]quinoline-3-carboxamide]
IC50 [1]: < 0.1 µM

COc1cc(-c2ccc(C(F)(F)F)cc2)c2ncc(C(=O)N[C@@H](C)c3ccccn3)cc2c1 [Compound 108, 6-methoxy-N-[(1S)-1-(2-pyridyl)ethyl]-8-[4-(trifluoromethyl)phenyl]quinoline-3-carboxamide]
IC50 [1]: < 0.1 µM

COC[C@H](C)NC(=O)c1cnc2c(-c3ccc(C(F)(F)F)cc3)cc(OC)cc2c1 [Compound 109, 6-methoxy-N-[(1S)-2-methoxy-1-methyl-ethyl]-8-[4-(trifluoromethyl)phenyl]quinoline-3-carboxamide]
IC50 [1]: < 0.1 µM

O=C(NC(CO)c1ccccn1)c1ccc2c(-c3ccc(C(F)(F)F)cc3)cccc2c1 (stereo not shown) [Compound 110, N-(2-hydroxy-1-(pyridin-2-yl)ethyl)-5-(4-(trifluoromethyl)phenyl)-2-naphthamide]
IC50 [1]: < 0.1 µM

C#CCNC(=O)c1ccc2c(-c3ccc(C(F)(F)F)cc3)cccc2c1 [Compound 111, N-(prop-2-yn-1-yl)-5-(4-(trifluoromethyl)phenyl)-2-naphthamide]
IC50 [1]: < 0.1 µM

C#CCCNC(=O)c1ccc2c(-c3ccc(C(F)(F)F)cc3)cccc2c1 [Compound 112, N-(but-3-yn-1-yl)-5-(4-(trifluoromethyl)phenyl)-2-naphthamide]
IC50 [1]: < 0.1 µM

N#CCNC(=O)c1ccc2c(-c3ccc(C(F)(F)F)cc3)cccc2c1 [Compound 113, N-(cyanomethyl)-5-(4-(trifluoromethyl)phenyl)-2-naphthamide]
IC50 [1]: < 0.1 µM

N#CCCNC(=O)c1ccc2c(-c3ccc(C(F)(F)F)cc3)cccc2c1 [Compound 114, N-(2-cyanoethyl)-5-(4-(trifluoromethyl)phenyl)-2-naphthamide]
IC50 [1]: < 0.1 µM

O=C(NCCSSCCNC(=O)c1ccc2c(-c3ccc(C(F)(F)F)cc3)cccc2c1)c1ccc2c(-c3ccc(C(F)(F)F)cc3)cccc2c1 [Compound 115, N,N′-(disulfanediylbis(ethane-2,1-diyl))bis(5-(4-(trifluoromethyl)phenyl)-2-naphthamide)]
IC50 [1]: 1 to 3 µM

CC(C)NC(=O)c1cnc2c(-c3ccc(C(F)(F)F)cc3)cc(OC3CC3)cc2c1 [Compound 116, 6-cyclopropoxy-N-isopropyl-8-(4-(trifluoromethyl)phenyl)quinoline-3-carboxamide]
IC50 [1]: < 0.1 µM

O=C(NC1(c2ccccc2)CC1)c1ccc2c(-c3ccc(C(F)(F)F)cc3)cccc2c1 [Compound 121, N-(1-phenylcyclopropyl)-5-[4-(trifluoromethyl)phenyl]naphthalene-2-carboxamide]
IC50 [1]: < 0.1 µM

CS(=O)(=O)NC(=O)c1cnc2c(-c3ccc(C(F)(F)F)cc3)cc(OC3CC3)cc2c1 [Compound 122, 6-cyclopropoxy-N-(methylsulfonyl)-8-(4-(trifluoromethyl)phenyl)quinoline-3-carboxamide]
IC50 [1]: 0.1 to 1 µM

CS(=O)(=O)NC(=O)c1cnc2c(-c3ccc(C(F)(F)F)cc3)cc(OC(F)(F)F)cc2c1 [Compound 123, N-(methylsulfonyl)-6-(trifluoromethoxy)-8-(4-(trifluoromethyl)phenyl)quinoline-3-carboxamide]
IC50 [1]: 1 to 3 µM

CNCCNC(=O)c1ccc2c(-c3ccc(C(F)(F)F)cc3)cccc2c1 [Compound 124, N-(2-(methylamino)ethyl)-5-(4-(trifluoromethyl)phenyl)-2-naphthamide]
IC50 [1]: 0.1 to 1 µM

CN(C#N)CCNC(=O)c1ccc2c(-c3ccc(C(F)(F)F)cc3)cccc2c1 [Compound 125, N-(2-(N-methylcyanamido)ethyl)-5-(4-(trifluoromethyl)phenyl)-2-naphthamide]
IC50 [1]: < 0.1 µM

CNCCCNC(=O)c1ccc2c(-c3ccc(C(F)(F)F)cc3)cccc2c1 [Compound 126, N-(3-(methylamino)propyl)-5-(4-(trifluoromethyl)phenyl)-2-naphthamide]
IC50 [1]: 0.1 to 1 µM

CN(C#N)CCCNC(=O)c1ccc2c(-c3ccc(C(F)(F)F)cc3)cccc2c1 [Compound 127, N-(3-(N-methylcyanamido)propyl)-5-(4-(trifluoromethyl)phenyl)-2-naphthamide]
IC50 [1]: 0.1 to 1 µM

C[C@H](NC(=O)c1ccc2c(-c3ccc(C(F)(F)F)cc3)cccc2c1)c1cccc(N)n1 [Compound 128, (S)—N-(1-(6-aminopyridin-2-yl)ethyl)-5-(4-(trifluoromethyl)phenyl)-2-naphthamide]
IC50 [1]: 0.1 to 1 µM

C[C@@H](NC(=O)c1ccc2c(-c3ccc(C(F)(F)F)cc3)cccc2c1)c1cccc(N)n1 [Compound 129, (R)—N-(1-(6-aminopyridin-2-yl)ethyl)-5-(4-(trifluoromethyl)phenyl)-2-naphthamide]
IC50 [1]: < 0.1 µM

O=C(N[C@H](CO)C1CNC1)c1ccc2c(-c3ccc(C(F)(F)F)cc3)cccc2c1 [Compound 130, N-[(1S)-1-(azetidin-3-yl)-2-hydroxy-ethyl]-5-[4-(trifluoromethyl)phenyl]naphthalene-2-carboxamide]
IC50 [1]: 1 to 3 µM

C[C@@H](NC(=O)c1ccc2c(-c3ccc(C(F)(F)F)cc3)cccc2c1)C1CN(CCO)C1 [Compound 133, (R)—N-(1-(1-(2-hydroxyethyl)azetidin-3-yl)ethyl)-5-(4-(trifluoromethyl)phenyl)-2-naphthamide]
IC50 [1]: 0.1 to 1 µM

C[C@@H](NC(=O)c1ccc2c(-c3ccc(C(F)(F)F)cc3)cccc2c1)C1CN(CC(F)F)C1 [Compound 137, (R)—N-(1-(1-(2,2-difluoroethyl)azetidin-3-yl)ethyl)-5-(4-(trifluoromethyl)phenyl)-2-naphthamide]
IC50 [1]: 0.1 to 1 µM

C[C@H](NC(=O)c1ccc2c(-c3ccc(C(F)(F)F)cc3)cccc2c1)C1CN(CCO)C1 [Compound 140, N-[(1S)-1-[1-(2-hydroxyethyl)azetidin-3-yl]ethyl]-5-[4-(trifluoromethyl)phenyl]naphthalene-2-carboxamide]
IC50 (24 h, read-out: Firefly Luciferase IC50 (μM)): 0.1 to 1 µM
